Legend:
dopamine transporter [1] = molecular target: T1, dopamine transporter (Macaca fascicularis, UniProt Q9GJT6); conditions: monkeys, in vivo and in vitro; density within range reported for the dopamine transporter; cited from earlier work
T1 construct: host or cells: monkey striatum

dopamine transporter [2] = molecular target: T2, dopamine transporter (Homo sapiens, UniProt Q01959); test: Dynamic SPECT time-activity study in Lewy Body Dementia and control subjects; type: in vivo; design: from tissue; host or cells: human brain striatum in vivo (Lewy Body Dementia subjects and controls)
T2 sequence (Q01959 whole entry): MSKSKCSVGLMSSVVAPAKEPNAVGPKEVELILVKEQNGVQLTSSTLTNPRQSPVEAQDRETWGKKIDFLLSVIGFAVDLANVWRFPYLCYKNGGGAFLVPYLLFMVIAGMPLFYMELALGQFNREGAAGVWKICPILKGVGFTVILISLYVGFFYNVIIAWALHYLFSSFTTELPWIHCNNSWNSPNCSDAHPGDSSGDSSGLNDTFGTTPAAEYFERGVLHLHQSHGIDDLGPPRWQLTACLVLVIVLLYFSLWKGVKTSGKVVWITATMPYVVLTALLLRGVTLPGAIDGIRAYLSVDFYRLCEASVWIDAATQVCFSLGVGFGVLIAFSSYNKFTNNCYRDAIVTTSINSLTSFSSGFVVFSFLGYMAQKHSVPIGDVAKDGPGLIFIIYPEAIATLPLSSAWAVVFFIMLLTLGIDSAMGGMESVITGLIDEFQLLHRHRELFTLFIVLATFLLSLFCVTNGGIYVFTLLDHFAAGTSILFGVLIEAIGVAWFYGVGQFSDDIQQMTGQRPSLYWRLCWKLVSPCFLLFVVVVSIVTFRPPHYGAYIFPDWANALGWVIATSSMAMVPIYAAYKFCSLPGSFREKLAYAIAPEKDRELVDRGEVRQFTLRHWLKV
From the text: The following example summarizes single photon emission computed tomographic (SPECT) image acquisition, analysis methods for Lewy Body Dementia research participants and healthy controls participating in an ^123I-altropane SPECT imaging study. The experiment is an open label study evaluating time-activity curves and striatal dopamine transporter occupancy over the first hour post bolus injection of ^123I-altropane using temporally well-resolved dynamic SPECT in Lewy Body Dementia subjects and similarly aged healthy control subjects. In addition, for the Lewy Body Dementia subjects, a second injection and scan is performed on each subject on a separate test day to evaluate the test/retest reproducibility data for both visual and quantitative analyses.
Fifteen idiopathic Lewy Body Dementia subjects are recruited through local advertising and word-of-mouth for enrollment in the study. All fifteen subjects complete two separate injection and SPECT scan sessions with approximately […] (8 mCi) of ^123I-altropane. Subjects undergo assessment by a neurology specialist.
Twelve healthy controls subjects are recruited for participation in a single scan session with ^123I-altropane using the identical SPECT image acquisition protocol as the Lewy Body Dementia subjects. Healthy subjects are evaluated by a neurology specialist to confirm the absence of neurologic illness.
SPECT scans are acquired for 60 min following the intravenous injection with […] (8.0 mCi) of ^123I altropane. A series of dynamic SPECT scans are obtained as five scans at 6 minutes per acquisition followed by three scans at 10 minutes per acquisition. The subject remains in the camera for the duration of the acquisition. Each SPECT study is acquired on a Philips PRISM 3000XP triple-headed SPECT camera (Cleveland, Ohio, USA) fitted with fan-beam collimators. Each head rotates 360 degrees, sampling every 3 degrees for a total of 120 raw projection images per head. Projection data are collected in a 128×128 matrix within a symmetric energy window centered at 159 kEv (+/−10%).
Data are re-constructed using filtered back projection and a simple ramp filter followed by a post hoc (3-D) standardized low pass filter. Attenuation correction is performed applying a Chang 0 correction and a mu of 0.11 cm^−1 using a standard or custom software. Regions of interest (ROIs) are placed in the 3-head data scans with individual ROI sampling of the left and right caudate and putamen and an occipital background region. […] The mean striatal SBR scores are calculated as the mean of the left and right caudate and putamen SBR scores. […]
The time-activity data for mean striatal count densities and occipital background for each of the 8 images acquired in the 60 minutes post injection sampling period are plotted to permit visual interrogation of the uptake and washout characteristics of ^123I-altropane in Lew Body Dementia and controls. […] The peak SBR is assessed for each subject for data acquired using 1, 2, and all 3 heads of imaging data. […]

dopamine transporter [3] = molecular target: T2, dopamine transporter; conditions: in vitro; cited from earlier work
dopamine transporter [4] = molecular target: T2, dopamine transporter; conditions: cited from earlier work
[5] = Safety and tolerability of imaging agent in patients; type: in vivo, human
dopamine transporter [6] = molecular target: T2, dopamine transporter; test: SPECT imaging of striatal binding potential, Lewy Body Dementia subjects versus controls; type: in vivo; design: from tissue; host or cells: human brain striatum in vivo (Lewy Body Dementia subjects and controls)

T1 sequence (Q9GJT6 whole entry): as the sequence (Q01959 whole entry) above, with V24M, I137V, P194S, S198G, D200N, S201G, S202P counted along it

| SMILES | regional binding in brain (dopamine transporter [1]) | elimination from the brain (dopamine transporter [2]; most subjects) | binding site on the dopamine transporter (dopamine transporter [3]) | selectivity for dopamine transporter compared to serotonin transporter (dopamine transporter [4]) | safety and tolerability [5] | test-retest reproducibility of total striatal binding (dopamine transporter [2]; 15 LBD subjects, about 30 minutes commencing 15 minutes after injection) | time post injection by which washout rates from striatum and occipital background are similar (stable striatal binding ratio) (dopamine transporter [2]; bolus injection) | time of peak striatal count densities post injection (dopamine transporter [2]; bolus injection, controls and Lewy Body Dementia subjects) | time of peak SBR post injection (dopamine transporter [2]; one and two imaging head reconstructions) | striatal binding potential versus expected levels for age matched normal individuals (dopamine transporter [6]; Example 1, six Lewy Body Dementia subjects, i.v., SPECT) | uptake in striatum, Lewy Body Dementia subjects versus control adults (dopamine transporter [6]; Example 3) | binding potential, Lewy Body Dementia group versus control group (dopamine transporter [6]; Example 3, 8 LBD and 16 control adults, one-tailed t-test) |
| --- | --- | --- | --- | --- | --- | --- | --- | --- | --- | --- | --- | --- |
| COC(=O)C1C(c2ccc(F)cc2)CC2CCC1N2C/C=C/I (stereo not drawn) [Altropane, 2β-carbomethoxy-3β-(4′-flurophenyl)-N-(3-iodo-E-allyl) nortropane] | preferentially binds to dopamine rich areas of the striatum | rapidly eliminate | binds to a specific high-affinity site | high selectivity |  |  |  |  |  |  |  |  |
| COC(=O)[C@H]1[C@@H](c2ccc(F)cc2)C[C@@H]2CC[C@H]1N2C/C=C/[123I] [^123I-Altropane, E-2β-carbomethoxy-3β-(4-fluorophenyl)-N-1(1-iodoprop-1-en-3) nortropane] |  |  |  |  | safe and well tolerated | demonstrates reproducibility | 20 to 30 min | 10 min | ≥ 15 min | reduced binding potential | lower | significantly lesser binding potential |
